Source: patent US20240083853A1, “HSD17B13 INHIBITORS AND USES THEREOF” (FL2022-001, Inc., priority 2020, published 2024)
Where a name gives a salt, the structure may show the parent alone.

Each compound was assayed against T1, Recombinant human HSD17B13 enzyme (Homo sapiens, UniProt Q7Z5P4) (assay: HSD17b13 NAD(P)H-Glo biochemical assay). Conditions: 50 uM estradiol, 1 mM NAD+, NAD(P)H-Glo luminescence; read-out: HSD17β13 IC50.
T1 sequence (Q7Z5P4 20-300): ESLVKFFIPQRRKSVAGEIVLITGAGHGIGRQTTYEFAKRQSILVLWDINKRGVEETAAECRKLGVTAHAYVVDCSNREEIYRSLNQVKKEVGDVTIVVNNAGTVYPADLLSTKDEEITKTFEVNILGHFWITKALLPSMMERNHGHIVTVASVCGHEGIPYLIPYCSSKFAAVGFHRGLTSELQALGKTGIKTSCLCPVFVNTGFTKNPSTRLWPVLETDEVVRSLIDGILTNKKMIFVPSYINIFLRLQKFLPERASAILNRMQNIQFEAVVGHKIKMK
Outline: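 Recombinant human HSD17B13 in 20 mM Tris pH7.4 with 0.002% Tween-20 and 0.02% BSA was preincubated with inhibitor for 20 minutes at RT. The reaction ran 3 hours at 37° C with 50 uM estradiol and 1 mM NAD+ (final). NADH formed was detected by NAD(P)H-Glo luminescence after 1 hour at RT.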

IC50 | SMILES
< 100 nM | CC1(C)CN(c2ccc(-n3ncc4cc(F)c(O)c(F)c43)cc2)C1 [Compound 23.13, 1-(4-(3,3-Dimethylazetidin-1-yl)phenyl)-5,7-difluoro-1H-indazol-6-ol]
100 to 1000 nM | Oc1c(F)cc2cnn(-c3ccc(-c4cn[nH]c4)cc3)c2c1F [Compound 14.1, 1-(4-(1H-Pyrazol-4-yl)phenyl)-5,7-difluoro-1H-indazol-6-ol]
100 to 1000 nM | CS(=O)(=O)N1CC2(CCN(c3ccc(-n4ncc5cc(F)c(O)c(F)c54)cc3)CC2)C1 [Compound 20.21, 5,7-Difluoro-1-(4-(2-(methylsulfonyl)-2,7-diazaspiro[3.5]nonan-7-yl)phenyl)-1H-indazol-6-ol]
100 to 1000 nM | COc1ccc(-c2ccc(-n3ncc4cc(F)c(O)cc43)cc2)cc1 [Compound 13.21, 5-Fluoro-1-(4′-methoxy-[1,1′-biphenyl]-4-yl)-1H-indazol-6-ol]
100 to 1000 nM | Oc1ccc(-c2ccc(-n3ncc4ccc(O)c(F)c43)cc2)cc1 [Compound 2.4, 7-Fluoro-1-(4′-hydroxy-[1,1′-biphenyl]-4-yl)-1H-indazol-6-ol]
< 100 nM | Oc1c(F)cc2cnn(-c3ccc(N4CCCC4)cc3)c2c1F [Compound 23.10, 5,7-Difluoro-1-(4-(pyrrolidin-1-yl)phenyl)-1H-indazol-6-ol]
100 to 1000 nM | N#Cc1cccc(-c2ccc(-n3ncc4cc(F)c(O)cc43)cc2)c1 [Compound 13.17, 4′-(5-Fluoro-6-hydroxy-1H-indazol-1-yl)-[1,1′-biphenyl]-3-carbonitrile]
< 100 nM | CC1(C)CCN(c2ccc(-n3ncc4cc(F)c(O)c(F)c43)cc2)C1 [Compound 23.11, 1-(4-(3,3-Dimethylpyrrolidin-1-yl)phenyl)-5,7-difluoro-1H-indazol-6-ol]
100 to 1000 nM | Oc1ccc(-c2ccc(-n3ncc4cc(F)c(O)cc43)cc2)cc1 [Compound 2.1, 5-Fluoro-1-(4′-hydroxy-[1,1′-biphenyl]-4-yl)-1H-indazol-6-ol]
100 to 1000 nM | Oc1cc2c(cnn2-c2ccc(-c3ccccc3Cl)cc2)cc1F [Compound 13.6, 1-(2′-Chloro-[1,1′-biphenyl]-4-yl)-5-fluoro-1H-indazol-6-ol]
100 to 1000 nM | Cc1cccc(-c2ccc(-n3ncc4cc(F)c(O)cc43)cc2)c1 [Compound 13.10, 5-Fluoro-1-(3′-methyl-[1,1′-biphenyl]-4-yl)-1H-indazol-6-ol]
100 to 1000 nM | Oc1c(F)cc2nnn(-c3ccc(N4CCOC[C@@H]4c4ccccc4)cc3)c2c1F [Compound 26.29, (S)-5,7-Difluoro-1-(4-(3-phenylmorpholino)phenyl)-1H-benzo[d][1,2,3]triazol-6-ol]
100 to 1000 nM | CN1CCC(c2ccc(-n3ncc4cc(F)c(O)c(F)c43)cc2)CC1 [Compound 27.10, 5,7-Difluoro-1-(4-(1-methylpiperidin-4-yl)phenyl)-1H-indazol-6-ol]
< 100 nM | Oc1c(F)cc2cnn(-c3ccc(C4CCOCC4)cc3)c2c1F [Compound 27.6, 5,7-Difluoro-1-(4-(tetrahydro-2H-pyran-4-yl)phenyl)-1H-indazol-6-ol]
< 100 nM | CS(=O)(=O)N1CCC(c2ccc(-n3nnc4cc(F)c(O)c(F)c43)cc2)CC1 [Compound 27.9, 5,7-Difluoro-1-(4-(1-(methylsulfonyl)piperidin-4-yl)phenyl)-1H-benzo[d][1,2,3]triazol-6-ol]
100 to 1000 nM | Cc1c(F)c(O)cc2c1cnn2-c1ccc(-c2cccc(O)c2)cc1 [Compound 4.2, 5-Fluoro-1-(3′-hydroxy-[1,1′-biphenyl]-4-yl)-4-methyl-1H-indazol-6-ol]
100 to 1000 nM | Cc1cc(-c2ccc(O)cc2)ccc1-n1ncc2cc(F)c(O)cc21 [Compound 15.1, 5-Fluoro-1-(4′-hydroxy-3-methyl-[1,1′-biphenyl]-4-yl)-1H-indazol-6-ol]
1000 to 30000 nM | Oc1cccc(-c2ccc(-n3ncc4cc(Cl)c(O)cc43)cc2)c1 [Compound 2.6, 5-Chloro-1-(3′-hydroxy-[1,1′-biphenyl]-4-yl)-1H-indazol-6-ol]
< 100 nM | C[C@@H]1CN(c2ccc(-n3ncc4cc(F)c(O)c(F)c43)cc2)C[C@H](C)O1 [Compound 20.7, 1-(4-(cis-2,6-Dimethylmorpholino)phenyl)-5,7-difluoro-1H-indazol-6-ol]
100 to 1000 nM | Cc1cc(N2CCN(S(C)(=O)=O)CC2)ccc1-n1ncc2cc(F)c(O)c(F)c21 [Compound 20.2, 5,7-Difluoro-1-(2-methyl-4-(4-(methylsulfonyl)piperazin-1-yl)phenyl)-1H-indazol-6-ol]

IC50 | SMILES
100 to 1000 nM | CC1(C)CCN(c2ccc(-n3ncc4c(C#N)c(F)c(O)cc43)cc2)CC1 [Compound 7.1, 1-(4-(4,4-Dimethylpiperidin-1-yl)phenyl)-5-fluoro-6-hydroxy-1H-indazole-4-carbonitrile]
100 to 1000 nM | CC1(C)CCN(c2ccc(-n3ncc4c(Cl)c(F)c(O)cc43)cc2)CC1 [Compound 5.2, 4-Chloro-1-(4-(4,4-dimethylpiperidin-1-yl)phenyl)-5-fluoro-1H-indazol-6-ol]
100 to 1000 nM | CC(C)n1c(=O)n(-c2ccc(N3CCC(C)(C)CC3)cc2)c2c(F)c(O)c(F)cc21 [Compound 21.13, 3-(4-(4,4-Dimethylpiperidin-1-yl)phenyl)-4,6-difluoro-5-hydroxy-1-isopropyl-1H-benzo[d]imidazol-2(3H)-one]
100 to 1000 nM | [O-][S+]1CC2(CN(c3ccc(-n4ncc5cc(F)c(O)c(F)c54)cc3)C2)C1 [Compound 32.2, 6-(4-(5,7-Difluoro-6-hydroxy-1H-indazol-1-yl)phenyl)-2-thia-6-azaspiro[3.3]heptane 2-oxide]
100 to 1000 nM | Oc1ccc(-c2ccc(-n3ncc4cc(F)c(O)cc43)nc2)cc1 [Compound 15.3, 5-Fluoro-1-(5-(4-hydroxyphenyl)pyridin-2-yl)-1H-indazol-6-ol]
1000 to 30000 nM | CS(=O)(=O)N1CCN(c2ccc(-n3nnc4cc(F)c(O)c(F)c43)nn2)CC1 [Compound 26.25, 5,7-Difluoro-1-(6-(4-(methylsulfonyl)piperazin-1-yl)pyridazin-3-yl)-1H-benzo[d][1,2,3]triazol-6-ol]
100 to 1000 nM | CCS(=O)(=O)N1CCN(c2ccc(-n3ncc4cc(F)c(O)c(F)c43)cc2)CC1 [Compound 23.8, 1-(4-(4-(Ethylsulfonyl)piperazin-1-yl)phenyl)-5,7-difluoro-1H-indazol-6-ol]
100 to 1000 nM | Oc1ccc(-c2ccc(-n3ncc4cc(F)c(O)cc43)cn2)cc1 [Compound 15.2, 5-Fluoro-1-(6-(4-hydroxyphenyl)pyridin-3-yl)-1H-indazol-6-ol]
< 100 nM | CCC1(C)CCN(c2ccc(-n3ncc4cc(F)c(O)c(F)c43)cc2)CC1 [Compound 24.5, 1-(4-(4-Ethyl-4-methylpiperidin-1-yl)phenyl)-5,7-difluoro-1H-indazol-6-ol]
< 100 nM | CS(=O)(=O)N1CCN(c2ccc(-n3nnc4cc(F)c(O)c(F)c43)cc2)CC1 [Compound 21.3, 5,7-Difluoro-1-(4-(4-(methylsulfonyl)piperazin-1-yl)phenyl)-1H-benzo[d][1,2,3]triazol-6-ol]
1000 to 30000 nM | OCc1cccc(-c2ccc(-n3ncc4cc(F)c(O)cc43)cc2)c1 [Compound 13.22, 5-Fluoro-1-(3′-(hydroxymethyl)-[1,1′-biphenyl]-4-yl)-1H-indazol-6-ol]
< 100 nM | COC1CCN(c2ccc(-n3ncc4cc(F)c(O)c(F)c43)cc2)C1 (stereo not shown) [Compound 22.5, 5,7-Difluoro-1-(4-(3-methoxypyrrolidin-1-yl)phenyl)-1H-indazol-6-ol]
100 to 1000 nM | CS(=O)(=O)N1CCN(c2ccc(-n3ncc4cc(F)c(O)c(F)c43)cc2)CC1 [Compound 19, 5,7-Difluoro-1-(4-(4-(methylsulfonyl)piperazin-1-yl)phenyl)-1H-indazol-6-ol]
< 100 nM | Oc1c(F)cc2cnn(-c3ccc(N4CCC5(CC4)CC5)cc3)c2c1F [Compound 23.23, 1-(4-(6-Azaspiro[2.5]octan-6-yl)phenyl)-5,7-difluoro-1H-indazol-6-ol]
< 100 nM | CC1(C)CCN(c2ccc(-n3ncc4cc(F)c(O)c(F)c43)nc2)CC1 [Compound 26.3, 1-(5-(4,4-Dimethylpiperidin-1-yl)pyridin-2-yl)-5,7-difluoro-1H-indazol-6-ol]
1000 to 30000 nM | CS(=O)(=O)N1CCN(c2ccc(-n3ncc4cc(F)c(O)c(F)c43)nc2)CC1 [Compound 26.4, 5,7-Difluoro-1-(5-(4-(methylsulfonyl)piperazin-1-yl)pyridin-2-yl)-1H-indazol-6-ol]
100 to 1000 nM | Oc1cc2c(nnn2-c2ccc(N3CC4(CCOCC4)C3)cc2)c(C(F)(F)F)c1F [Compound 41, 1-(4-(7-Oxa-2-azaspiro[3.5]nonan-2-yl)phenyl)-5-fluoro-4-(trifluoromethyl)-1H-benzo[d][1,2,3]triazol-6-ol]
< 100 nM | Oc1c(F)cc2cnn(-c3cnc(-c4ccc(Cl)cc4)cn3)c2c1F [Compound 18, 1-(5-(4-Chlorophenyl)pyrazin-2-yl)-5,7-difluoro-1H-indazol-6-ol]
100 to 1000 nM | CS(=O)(=O)N1CCN(c2ccc(-n3ncc4cc(F)c(O)c(F)c43)cn2)CC1 [Compound 26.2, 5,7-Difluoro-1-(6-(4-(methylsulfonyl)piperazin-1-yl)pyridin-3-yl)-1H-indazol-6-ol]

Same assay, conditions: 3 h, read-out: HSD17β13 % at 10 uM

SMILES | inhibition at 10 µM
CC1(C)CCN(c2ccc(N3C(=O)C(O)c4cc(F)c(O)c(F)c43)cc2)CC1 (stereo not shown) [Compound 35, 1-(4-(4,4-Dimethylpiperidin-1-yl)phenyl)-5,7-difluoro-3,6-dihydroxyindolin-2-one hydrochloride] | < 20%
